The values that follow come from ChEMBL document CHEMBL1201862, “PubChem BioAssay data set” (2004).

Test systems include SF-539; 786-0; HCT-116; A549; SF-268; HOP-92; ACHN; HT-29; SF-295; NCI-H522; SK-OV-3; K562; UACC-257; OVCAR-4; HCT-15.
Holding throughout (experiment): NCI tumour cell line growth inhibition, 48 h

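48-hour exposure; five concentrations; linearly interpolated endpoints. GI50: concentration for 50% inhibition of growth.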 Active and inactive are the calls of the source. No stated cut-off is given here; in the data, active = GI50 up to about 1.1 µM and inactive = higher.

Consider `O=C(Nc1cccc([N+](=O)[O-])c1)C(=O)C(C(=O)c1ccccc1-c1ccccc1)C1OC(=O)c2ccccc21` (centres undefined), for which the GI50 with SF-539 was 14.5 µM (inactive); in the experiment on 786-0, 18.7 µM (inactive); with HCT-116, 12.8 µM (inactive); in the experiment with A549 it was 26.9 µM (inactive); in the experiment with SF-268, 22.2 µM (inactive); with HOP-92, 13.4 µM (inactive). Moreover, the GI50 in the experiment with ACHN was 35.6 µM (inactive); in the experiment with HT-29 it was 38.8 µM (inactive); with SF-295, 22 µM (inactive); in the experiment on NCI-H522, 11.4 µM (inactive); in the experiment on SK-OV-3, 32.5 µM (inactive); in the experiment with K562 it was 28 µM (inactive). Besides, in the experiment on UACC-257, the GI50 was 20.1 µM (inactive).

Turning to `COc1ccc(C(=O)O)c(Br)c1OCc1ccccc1`, the GI50 in the experiment with SF-539, in the experiment on 786-0, in the experiment with HCT-116, with A549, in the experiment on OVCAR-4 and in the experiment on SF-268 was > 100 µM (inactive) each time. Moreover, the GI50 with HOP-92, with ACHN, with HT-29, in the experiment on SF-295, with NCI-H522 and with SK-OV-3 was > 100 µM (inactive) each time. In addition, the GI50 in the experiment with K562 was > 100 µM (inactive); in the experiment on HCT-15, over 100 µM.

Regarding `CC(=O)Oc1c2c(c(O)c3ccccc13)C(n1cnc3c(ncn3C3OC(CO)C4OC(C)(C)OC43)c1=N)CCC2` (centres undefined), the GI50 in the experiment with SF-539 is 18.2 µM (inactive); in the experiment with 786-0 it was 14.5 µM (inactive); in the experiment with A549, 19.1 µM (inactive); with SF-268, 16.4 µM (inactive); in the experiment with HOP-92, 22.6 µM (inactive); with ACHN, 16.5 µM (inactive). The GI50 with HT-29 is 13.2 µM (inactive); in the experiment with SF-295 it was 13.9 µM (inactive); with NCI-H522, 5.87 µM (inactive); in the experiment on SK-OV-3, 19 µM (inactive); in the experiment on K562, 6.84 µM (inactive); with HCT-15 it was 14.8 µM. In addition, in the experiment on UACC-257, the GI50 was 10.2 µM (inactive).

In the case of `COC(=O)C(=O)C(CC(=O)Nc1cccc(C(F)(F)F)c1)C(=O)OC` (centres undefined), the GI50 in the experiment on SF-539, in the experiment on 786-0, with HCT-116, in the experiment with A549, in the experiment on OVCAR-4 and in the experiment with SF-268 was > 100 µM (inactive) in each case. In addition, the GI50 in the experiment with HOP-92 was > 100 µM (inactive); in the experiment with ACHN, > 100 µM (inactive); in the experiment on NCI-H522, > 100 µM (inactive); in the experiment with SK-OV-3 it was > 100 µM (inactive); in the experiment with K562, > 100 µM (inactive); in the experiment on HCT-15 it was over 100 µM.

Regarding `C/C(=N\N(C)C)C(CN(C)C)C(c1ccccc1)c1c(O)c2ccccc2oc1=O` (centres undefined), the GI50 with 786-0 is > 100 µM (inactive); in the experiment on HCT-116 it was > 100 µM (inactive); with A549, > 100 µM (inactive); with OVCAR-4 it was > 100 µM (inactive); with SF-268, > 100 µM (inactive); in the experiment on HOP-92, 70.5 µM (inactive). The GI50 with ACHN, in the experiment on HT-29, in the experiment on SF-295, in the experiment on NCI-H522, in the experiment on SK-OV-3 and in the experiment with K562 was > 100 µM (inactive) each time. The GI50 with HCT-15 was over 100 µM; in the experiment on UACC-257, > 100 µM (inactive).

Take `NC(=O)C1C(=O)Oc2cccnc21` (centres undefined): the GI50 in the experiment with SF-539, with 786-0, with HCT-116, in the experiment on A549, with ACHN and in the experiment with HT-29 was > 100 µM (inactive) each time. The GI50 was > 100 µM (inactive) in the experiment with SF-295; > 100 µM (inactive) in the experiment with NCI-H522; > 100 µM (inactive) in the experiment on SK-OV-3; > 100 µM (inactive) with K562; over 100 µM in the experiment with HCT-15; 89.9 µM (inactive) with UACC-257.

For the compound `Cc1ccc2c(c1)C1(C)OC(CC(N)C1O)O2` (centres undefined), the GI50 in the experiment with SF-539, in the experiment with 786-0, in the experiment with HCT-116, in the experiment on A549, in the experiment with ACHN and in the experiment with HT-29 was > 100 µM (inactive) in each case. In addition, the GI50 was > 100 µM (inactive) in the experiment with SF-295; > 100 µM (inactive) in the experiment with NCI-H522; > 100 µM (inactive) in the experiment with SK-OV-3; > 100 µM (inactive) with K562; over 100 µM in the experiment on HCT-15; > 100 µM (inactive) with UACC-257.

Consider `O/N=C(\C(=N/O)Nc1ccc(-c2ccc(NC(=N/O)/C(=N\O)c3ccccc3)cc2)cc1)c1ccccc1`, for which the GI50 in the experiment on SF-539 was 18.9 µM (inactive); with 786-0, 21.5 µM (inactive); with HCT-116, 18.7 µM (inactive); in the experiment on A549, 31.5 µM (inactive); with SF-268, 27.4 µM (inactive); in the experiment with HOP-92 it was 20 µM (inactive). Moreover, the GI50 was 30.6 µM (inactive) in the experiment on ACHN; 13.6 µM (inactive) in the experiment on HT-29; 18.6 µM (inactive) in the experiment with SF-295; 17.8 µM (inactive) in the experiment with NCI-H522; 17.5 µM (inactive) with SK-OV-3; 18 µM (inactive) with K562. Also, the results for the GI50 with HCT-15 and in the experiment with UACC-257 were 27.3 µM and 29.9 µM (inactive), respectively.

Take `CCCCCc1cc(OC(=O)c2c(O)cc(OC)cc2CCCCC)cc(O)c1C(=O)O`: the GI50 in the experiment with SF-539 is 16.8 µM (inactive); in the experiment with 786-0, 16.4 µM (inactive); in the experiment with A549 it was 17.8 µM (inactive); with OVCAR-4, 20 µM (inactive); with SF-268, 13.2 µM (inactive); in the experiment with HOP-92 it was 16.4 µM (inactive). Moreover, the GI50 with ACHN was 17.3 µM (inactive); in the experiment with HT-29 it was 14.2 µM (inactive); with SF-295, 16.8 µM (inactive); in the experiment on NCI-H522, 11.1 µM (inactive); in the experiment with SK-OV-3, 16.7 µM (inactive); in the experiment on K562, 26.8 µM (inactive). This compound had a GI50 in the experiment on HCT-15 of 12.6 µM.

As to `CC1=CC(/C=C(\C)CCCc2ccoc2)C2(OC(=O)C(C)=C2O)[C@H]2C1CC[C@@H]2C` (some centres undefined), the GI50 in the experiment with SF-539 was 17.5 µM (inactive); in the experiment on 786-0 it was 14.6 µM (inactive); in the experiment with HCT-116, 15.6 µM (inactive); in the experiment with A549, 23.4 µM (inactive); in the experiment on HOP-92, 17.9 µM (inactive); in the experiment with ACHN, 19.8 µM (inactive). The GI50 in the experiment on HT-29 is 34.3 µM (inactive); in the experiment on SF-295, 20.7 µM (inactive); with NCI-H522 it was 13.9 µM (inactive); with SK-OV-3 it was 26.2 µM (inactive); in the experiment with K562 it was 24.7 µM (inactive); with HCT-15 it was 15.5 µM. Further, the GI50 in the experiment with UACC-257 was 29.5 µM (inactive).

In the case of `FC1OC2OC1C(OCc1ccccc1)C(OCc1ccccc1)C2OCc1ccccc1` (centres undefined), the GI50 was > 100 µM (inactive) in the experiment on SF-539; 43.2 µM (inactive) with 786-0; 25.3 µM (inactive) with HCT-116; 72.8 µM (inactive) in the experiment on A549; 34.1 µM (inactive) with OVCAR-4; 32.4 µM (inactive) in the experiment on SF-268. Also, the GI50 was 15.3 µM (inactive) in the experiment on HOP-92; 34.8 µM (inactive) in the experiment on HT-29; > 100 µM (inactive) in the experiment with SF-295; > 10 µM (inactive) in the experiment on NCI-H522; > 100 µM (inactive) in the experiment on SK-OV-3; 25.8 µM (inactive) in the experiment on K562. Besides, the GI50 was 35.7 µM with HCT-15 and 35.5 µM (inactive) in the experiment with UACC-257.
